{
  "source": "patent US6423753B1",
  "about": "“Use of colchinol derivatives as vascular damaging agents” (priority 1997, dated 2002)",
  "key": {"[1]": {"tested_on": "CaNT tumour", "conditions": "for MED (mg/kg body weight): other tubulin-binding agents, by fluorescent dye technique; for vascular-damaging effects: at Maximum Tolerated Dose (30 mg/kg), 30 mg/kg; for % decrease in vascular volume: administered at 50 mg/kg, fluorescent dye technique; for MED mg/Kg body weight: minimum effective dose by the fluorescent dye technique"}, "[2]": {"assay": "Maximum tolerated dose (no deaths in three animals)", "format": "in vivo", "conditions": "for MTD: mouse, in vivo, other tubulin-binding agents, read-out: MTD (mg/kg body weight); for MTD mg/Kg body weight: maximum tolerated dose, no deaths in three animals", "excerpt": "The phosphate compound was compared with the parent N-acetylcolchinol for the maximum tolerated dose (MTD) (no deaths in three animals), minimum effective dose (MED) measured by the fluorescent dye technique already described and the therapeutic window (MTD/MED)."}, "[3]": {"conditions": "compared with parent N-acetylcolchinol"}, "[4]": {"tested_on": "Subcutaneous CaNT tumours", "assay": "Activity against tumour vasculature measured by radioactive tracer (86RbCl extraction, relative blood flow)", "format": "in vivo, mice", "conditions": "dose of 125 mg/kg intraperitoneally", "method": "Activity Against Tumour Vasculature Measured by Radioactive Tracer.\nSubcutaneous CaNT tumours were initiated by injecting 0.05 ml of a crude tumour cell suspension, approximately 10^6 cells, under the skin overlying the rear dorsum of 12-16 week-old mice. The animals were selected for treatment after approximately 3-4 weeks, when their tumours reached a geometric mean diameter of 5.5-6.5 mm. Compounds were dissolved in sterile saline and injected intraperitoneally in a volume of 0.1 ml per 10 g body weight. Tumour perfusion was measured 6 hours after intraperitoneal administration in tumour, kidney, liver, skin muscle, gut and brain by the ^86RbCI extraction technique (Sapirstein, Amer J Physiol, 193, 161-168, 1958). Tissue radioactivity measured 1 minute after an intravenous injection of ^86RbCI was used to calculate relative blood flow as a proportion of cardiac output (Hill and Denekamp, Brit J Radiol, 55, 905-913, 1982). Five animals were used in control and treated groups. Results were expressed as a percentage of the blood flow in the corresponding tissues in vehicle treated animals."}},
  "note": "Where two headings read alike, the source gives them in different places.",
  "data": [
    {"molecule": "COc1cc2c(c(OC)c1OC)-c1ccc(OC)c(=O)cc1[C@@H](NC(C)=O)CC2", "note": "[Colchicine, reference compound]", "values": [
      {"measurement": "MED (mg/kg body weight)", "setting": "[1]", "result": 2.5, "unit": "mg/kg body weight"},
      {"measurement": "MTD", "setting": "[2]", "result": 5, "unit": "mg/kg"}
    ]},
    {"molecule": "CC(=O)O[C@@]12CO[C@@H]1C[C@H](O)[C@@]1(C)C(=O)[C@H](O)C3=C(C)[C@@H](OC(=O)[C@H](O)[C@@H](NC(=O)OC(C)(C)C)c4ccccc4)C[C@@](O)([C@@H](OC(=O)c4ccccc4)[C@H]21)C3(C)C", "note": "[Docetaxel, reference compound]", "values": [
      {"measurement": "vascular-damaging effects", "setting": "[1]", "result": "No effect"},
      {"measurement": "vascular-damaging effects", "setting": "[1]; listed as docetaxel", "result": "no vascular-damaging effects"},
      {"measurement": "MED (mg/kg body weight)", "setting": "[1]", "result": "> 30", "unit": "mg/kg body weight"},
      {"measurement": "MTD", "setting": "[2]", "result": 30, "unit": "mg/kg"}
    ]},
    {"molecule": "COc1cc2c(c(OC)c1OC)-c1ccc(OP(=O)(O)O)cc1C(NC(C)=O)CC2", "note": "(stereo not drawn) [Example 1, N-Acetylcolchinol-O-phosphate]", "values": [
      {"measurement": "solubility", "setting": "[3]", "result": "greater solubility"},
      {"measurement": "% decrease in vascular volume", "setting": "[1]", "result": 89, "unit": "%"},
      {"measurement": "MED mg/Kg body weight", "setting": "[1]", "result": 50, "unit": "mg/Kg body weight"},
      {"measurement": "MTD mg/Kg body weight", "setting": "[2]", "result": 750, "unit": "mg/Kg body weight"},
      {"measurement": "decrease in tumour blood flow", "setting": "[4]; measured 6 hours after administration, relative to vehicle treated animals", "result": 65, "unit": "%"},
      {"measurement": "reduction in blood flow in skin, muscle, liver, kidney, gut or heart", "setting": "[4]; normal tissues", "result": "no significant reduction"}
    ]},
    {"molecule": "CCNC1CCc2cc(OC)c(OC)c(OC)c2-c2ccc(O)cc21", "note": "(stereo not drawn) [Example 2, N-Ethylcolchinol]", "values": [
      {"measurement": "% decrease in vascular volume", "setting": "[1]", "result": 38, "unit": "%"}
    ]},
    {"molecule": "COc1cc2c(c(OC)c1OC)-c1ccc(O)cc1C(NC(=O)OCc1ccccc1)CC2", "note": "(stereo not drawn) [Example 3, N-Benzyloxvcarbonylcolchinol]", "values": [
      {"measurement": "% decrease in vascular volume", "setting": "[1]", "result": 43, "unit": "%"}
    ]},
    {"molecule": "COc1cc2c(c(OC)c1OC)-c1ccc(O)cc1C(NC(=O)Nc1ccccc1)CC2", "note": "(stereo not drawn) [Example 4, N-(Phenylcarbamoyl) colchinol]", "values": [
      {"measurement": "% decrease in vascular volume", "setting": "[1]", "result": 37, "unit": "%"}
    ]},
    {"molecule": "COc1cc2c(c(OC)c1OC)-c1ccc(O)cc1C(NS(C)(=O)=O)CC2", "note": "(stereo not drawn) [Example 5, N-Mesylcolchinol]", "values": [
      {"measurement": "% decrease in vascular volume", "setting": "[1]", "result": 38, "unit": "%"}
    ]},
    {"molecule": "COc1cc2c(c(OC)c1OC)-c1ccc(O)cc1C(NS(=O)(=O)N(C)C)CC2", "note": "(stereo not drawn) [Example 6, N-Dimethylsulphamoylcolchinol]", "values": [
      {"measurement": "% decrease in vascular volume", "setting": "[1]", "result": 30, "unit": "%"}
    ]},
    {"molecule": "COC(=O)COc1ccc2c(c1)C(NC(C)=O)CCc1cc(OC)c(OC)c(OC)c1-2", "note": "(stereo not drawn) [Example 7, N-Acetyl-O-methoxycarbonylmethylcolchinol]", "values": [
      {"measurement": "% decrease in vascular volume", "setting": "[1]", "result": 12, "unit": "%"}
    ]},
    {"molecule": "COc1cc2c(c(OC)c1OC)-c1ccc(OCC(=O)O)cc1C(NC(C)=O)CC2", "note": "(stereo not drawn) [Example 8, N-Acetyl-O-carboxymethylcolchinol]", "values": [
      {"measurement": "% decrease in vascular volume", "setting": "[1]", "result": 49, "unit": "%"}
    ]},
    {"molecule": "COc1cc2c(c(OC)c1OC)-c1ccc(OC3CCCC3)cc1C(NC(C)=O)CC2", "note": "(stereo not drawn) [Example 9, N-Acetyl-O-cyclopentylcolchinol]", "values": [
      {"measurement": "% decrease in vascular volume", "setting": "[1]", "result": 59, "unit": "%"}
    ]},
    {"molecule": "COc1cc2c(c(OC)c1OC)-c1cc([N+](=O)[O-])c(O)cc1C(NC(C)=O)CC2", "note": "(stereo not drawn) [Example 10, N-Acetyl-10-nitrocolchinol]", "values": [
      {"measurement": "% decrease in vascular volume", "setting": "[1]", "result": 28, "unit": "%"}
    ]},
    {"molecule": "COc1cc2c(c(OC)c1OC)-c1ccc(O)cc1[C@@H](NC(C)=O)CC2", "note": "[N-acetylcolchinol, reference compound]", "values": [
      {"measurement": "% decrease in vascular volume", "setting": "[1]", "result": 78, "unit": "%"},
      {"measurement": "MED mg/Kg body weight", "setting": "[1]", "result": 30, "unit": "mg/Kg body weight"},
      {"measurement": "MTD mg/Kg body weight", "setting": "[2]", "result": 125, "unit": "mg/Kg body weight"}
    ]}
  ]
}
